Test results reported in article PMC9329436, “Optimization of the 4-anilinoquin(az)oline scaffold as epidermal growth factor receptor (EGFR) inhibitors for chordoma utilizing a toxicology profiling assay platform” (Scientific Reports, 2022).

Key:
[1] = system: U-CH1 chordoma cell line; assay: Cell viability assay (alamarBlue, 72 h), U-CH1; assay type: cell-based, human
Protocol: (§1) Chordoma cell lines were cultured as described previously[10],[12],[33],[34]. Briefly, U-CH1 and U-CH2 cell lines were cultured in 4:1 IMDM:RPMI medium supplemented with 10% fetal bovine serum (FBS) and 1% penicillin/streptomycin in gel-coated flasks. […] CH22, UM-Chor1, U-CH12, and U-CH7 cell lines were cultured in RPMI medium supplemented with 10% FBS and 1% penicillin/streptomycin. The cell lines all undergo regular mycoplasma screening.
(§2) Cells were seeded in 384 well plates and were treated with test compound in quadruplicate 24 h after plating. Cell viability was assessed at 72 h using alamarBlue (ThermoFisher, USA). […] IC50 values were determined by four-parameter nonlinear regression analyses using GraphPad Prism™ version 8 software (San Diego, CA).

[2] = system: U-CH2 chordoma cell line; assay: Cell viability assay (alamarBlue, 72 h), U-CH2; assay type: cell-based, human
Protocol: as §1, §2

[3] = system: HL60 cells; assay: AsedaSciences SYSTEMETRIC Cell Health Screen (flow cytometry toxicity profiling); conditions: for CC: Cell Cycle score / CM: Cell morphology score / CMI: Cell membrane integrity score / GSH: Glutathione score / MMP: Mitochondrial membrane depolarization score / NMI1: Nuclear membrane integrity 1 score / NMI2: Nuclear membrane integrity 2 score / ROS: Reactive superoxide species score / CHI: Cell Health Index: HL60, 4 h, 5 nM–100 µM; for CC: Cell Cycle score / CM: Cell morphology score / CMI: Cell membrane integrity score / GSH: Glutathione score / MMP: Mitochondrial membrane depolarization score / NMI1: Nuclear membrane integrity 1 score / NMI2: Nuclear membrane integrity 2 score / ROS: Reactive superoxide species score: probability 0–1, n = 2; for CHI: Cell Health Index: probability (0–1) of high-risk class, n = 2; for Cell Health Toxcity Profile CC (DyeCycle Violet) / Cell Health Toxcity Profile CM (Cell morphology) / Cell Health Toxcity Profile CMI (Cell membrane integrity) / Cell Health Toxcity Profile GSH (Glutathione) / Cell Health Toxcity Profile MMP (Mitochondrial membrane depolarization) / Cell Health Toxcity Profile NMI1 (Nuclear membrane integrity 1) / Cell Health Toxcity Profile NMI2 (Nuclear membrane integrity 2) / Cell Health Toxcity Profile ROS (Reactive superoxide species) / Cell Health Toxcity Profile CHI: SYSTEMETRIC Cell Health Screen, assay n=2; for Cell Health Toxcity Profile CHI: classifier output
Excerpt: To prioritize further optimization, in addition to cellular potency, we utilized the AsedaSciences® […]® Cell Health Screen. This live cell flow cytometry (FC) screen was developed to assess human safety risk for candidate pharmaceutical small molecules at the early hit-to-lead stage of development. The screen works by estimating the risk using a supervised machine learning (ML) classifier to assess a multiparametric cellular stress phenotype, produced by the test compound, relative to a training set of known compounds (Table S1). This screen has been designed for early pipeline risk estimation regardless of pharmaceutical class/disease type, so it uses HL60 as the reporter cell line.
The ML classifier was trained with 300 historically known compounds (on market or withdrawn drugs, research compounds, etc.), which were divided into two outcome classes based upon literature, clinical trials, and market histories where applicable. This external curation informed an outcome of “high-risk” or “low-risk”. All 300 compounds were also processed through the automated FC screen, populating each of the two classes with frequency distributions of empirical cell-based phenotypes.
To estimate human safety risk for an unknown compound, the ML classifier assesses the similarity of the test compound’s cell-based phenotype to the distributions of phenotypes in the two outcome classes. […] Phenotypes are derived from twelve FC detection parameters, including light scatter and a series of fluorescent physiological reporter dyes, that track cell stress-related endpoints.
To produce the Cell Health Index, the ML classifier uses all twelve FC parameters simultaneously in a multidimensional logistic regression model, so the CHI contains the most predictive power. In addition to the Cell Health Index, Table 4 also reports probability scores for eight cell stress-related endpoints. These scores are produced individually by passing information to the ML classifier relating to parameters that inform that endpoint. For example, to produce the cell morphology (CM) score, the ML classifier only uses the FC detection parameters for forward scatter (informing change in cell diameter) and side scatter (informing change in optical granularity of the cell) to inform the model. Together, these eight endpoints provide a “biological fingerprint”, allowing assessment of the degree to which SAR series members behave differently across endpoints.
In a 384-well platform, HL60 cells were exposed to a 10-step, 3 × dilution series of each test compound (5 nM–100 µM) for 4 h at 37 °C with 5% CO2. Each dilution series was screened in duplicate, occupying a total of 20 wells, allowing 16 test compounds to be assayed per plate. Each row contained one positive and one negative control well, for a total of 16 replicate positive/negative control pairs on each assay plate. Compound formatting, cell deposition, and dye application were performed robotically so that final assay conditions comprised 100,000 cells in a 40 µL volume. After the 4 h compound exposure, cells were immediately stained with a panel of fluorescent dyes that report physiological signatures of both mitochondrial dysfunction and gross cell stress. Fluorescence and forward/side-scatter data were collected using automated FC with no gating. FC data are processed by an automated algorithm for producing quality control measures and ML classification of compound phenotypes. • 2. HL60 cell culture production
HL60 cells were produced as suspension cultures in glass 850 cm^2 roller bottles with vented caps, at 1 RPM, 5% CO2, and 37 °C. […] Culture density was maintained at or below 1 × 10^6 cells/mL.

Row | SMILES | IC50 ([1]; n = 4, 72 h) [µM] | IC50 ([2]; n = 4, 72 h) [µM] | CC: Cell Cycle score [3] | CM: Cell morphology score [3] | CMI: Cell membrane integrity score [3] | GSH: Glutathione score [3] | MMP: Mitochondrial membrane depolarization score [3] | NMI1: Nuclear membrane integrity 1 score [3] | NMI2: Nuclear membrane integrity 2 score [3] | ROS: Reactive superoxide species score [3] | CHI: Cell Health Index [3] | Cell Health Toxcity Profile CC (DyeCycle Violet) [3] | Cell Health Toxcity Profile CM (Cell morphology) [3] | Cell Health Toxcity Profile CMI (Cell membrane integrity) [3] | Cell Health Toxcity Profile GSH (Glutathione) [3] | Cell Health Toxcity Profile MMP (Mitochondrial membrane depolarization) [3] | Cell Health Toxcity Profile NMI1 (Nuclear membrane integrity 1) [3] | Cell Health Toxcity Profile NMI2 (Nuclear membrane integrity 2) [3] | Cell Health Toxcity Profile ROS (Reactive superoxide species) [3] | Cell Health Toxcity Profile CHI [3] | other results
1 | C#Cc1cccc(Nc2ncnc3ccc(C#N)cc23)c1 [Compound 18] | 74 | > 100 | 0.27 | 0.0026 | 0.0079 | 0.023 | 0.11 | 0.33 | 0.094 | 0.042 | 0.18 |  |  |  |  |  |  |  |  |  | 
2 | C#Cc1cccc(Nc2ncnc3ccc(S(C)(=O)=O)cc23)c1 [Compound 19] | 45 | 52 | 0.33 | 0.0013 | 0.0057 | 0.044 | 0.21 | 0.36 | 0.089 | 0.055 | 0.22 |  |  |  |  |  |  |  |  |  | 
3 | C#Cc1cccc(Nc2ncnc3cc4c(cc23)OCO4)c1 [Compound 20] | 22 | > 100 | 0.13 | 0.0019 | 0.0038 | 0.087 | 0.016 | 0.72 | 0.0045 | 0.027 | 0.18 |  |  |  |  |  |  |  |  |  | 
4 | C#Cc1cccc(Nc2c(C#N)cnc3cc(OC)c(OC)cc23)c1 [Compound 22, 4-((3-ethynylphenyl)amino)-6,7-dimethoxyquinoline-3-carbonitrile] |  |  |  |  |  |  |  |  |  |  |  | 0.33 | 0.35 | 0.77 | 0.071 | 0.39 | 0.67 | 0.29 | 0.81 | 0.40 | IC50 ([1]; Homo sapiens, UCH1, n = 4, 72 h): 4.1 µM; IC50 ([2]; Homo sapiens, UCH2, n = 4, 72 h): 36 µM
5 | C#Cc1cccc(Nc2c(C#N)cnc3ccc(OC)cc23)c1 [Compound 23] | 20 | > 100 |  |  |  |  |  |  |  |  |  | 0.74 | 0.020 | 0.0039 | 0.0085 | 0.28 | 0.30 | 0.11 | 0.056 | 0.26 | 
6 | C#Cc1cccc(Nc2c(C#N)cnc3ccccc23)c1 [Compound 24] | 34 | > 100 |  |  |  |  |  |  |  |  |  | 0.76 | 0.99 | 1.00 | 0.98 | 0.97 | 0.85 | 0.81 | 0.98 | 0.70 | 
7 | C#Cc1cccc(Nc2c(C#N)cnc3ccc(F)cc23)c1 [Compound 25] | 23 | > 100 |  |  |  |  |  |  |  |  |  | 0.76 | 0.98 | 0.99 | 0.97 | 0.96 | 0.71 | 0.72 | 0.93 | 0.69 | 
